Assay [1] concerns LN229 MGMT−/MMR− intracranial tumors. Nature of the assay: Anti-cancer activity in mice having tumors formed from LN-229 human brain glioblastoma cells. To be noted: 25 mg/kg PO for 5 days; compared with vehicle, TMZ, or KL50. Format: in vivo, mouse. The method, then: Mice bearing tumors formed from LN-229 human brain glioblastoma cells were prepared as follows: LN229 MGMT−/MMR− cells stably expressing firefly luciferase (lentivirus-plasmids from Cellomics Technology; PLV-10003) were injected intracranially into mice using a stereotactic injector. For this procedure, 1.5 million LN229 MGMT−/MMR− cells in 5 μl PBS were injected into the brain of the mice subjects, and then the mice were imaged weekly using the IVIS Spectrum In Vivo Imaging System (PerkinElmer) according to the manufacturer's protocol. Images were taken on a weekly basis and acquired 10 min post intraperitoneal injection with d-luciferin (150 mg/kg of animal mass). Tumors were allowed to grow to an average of 1.0×10^8 RLU before randomization of the mice.
Treatments using study compounds were administered PO (oral gavage), with 10% cyclodextrin vehicle control or study compound, according to the indicated treatment regimen. Animals were observed daily, with weekly tumor imaging and body weight measurements. Quantification of BLI flux (photons/sec) was made through the identification of a region of interest (ROI) for each tumor.
Study compounds were administered to mice at a dose of 25 mg/kg PO for 5 days; thereafter no further study compound was administered to the mice.
Statistical analysis of data was performed using GraphPad Prism software. Data was presented as mean±SEM. […]

Assay [2] deals with PD20 cells, FANCD2−/− or +FANCD2. The experiment in a line: Short-term cell viability assay in FANCD2 model. It counts as cell-based, human. To be noted: PD20 FANCD2−/− versus +FANCD2. The method, then: FIGS. Z4A-Z4I. KL-50 (4a) activates DNA damage response pathways and cycle arrest in MGMT− cells, independent of MMR, and induces sensitivity in cells deficient in ICL or HR repair. (FIGS. Z4A, Z4B, and Z4C) Phospho-SER139-H2AX (γH2AX) (A), 53BP1 (FIG. Z4B), and phospo-SER33-RPA2 (pRPA) (FIG. Z4C) foci formation quantified by % cells with 10 foci in LN229 MGMT+/−, MMR+/− cells treated with 0.1% DMSO control, 20 μM KL-50 (4a), or 20 μM TMZ (1a) for 48 h. Columns, mean; error bars, SD; n≥5 technical replicates. Additional time course data is presented in FIG. ZS6B to D. (FIG. Z4D) Representative foci images of data in (FIG. Z4A) to (FIG. Z4C). (FIG. Z4E) Percentage of cells in G1, S, and G2 cell cycle phases after treatment as in (A) to (C), measured using integrated nuclear (Hoechst) staining intensity. Columns, mean; error bars, SD; n=3 independent analyses. (FIG. Z4F) Change in percent cells with 1 micronuclei from baseline (DMSO control) after treatment as in (FIG. Z4A) to (FIG. Z4C). Columns, mean; error bars, SD; […] technical replicates; **** p<0.0001; ns, not significant. Additional validation is presented in FIG. ZS9, A and B. (FIG. Z4G) Short-term viability assay curves for KL-50 (4a) in PD20 cells, deficient in FANCD2 (FANCD2−/−) or complemented with FANCD2 (+FANCD2). (FIG. Z4H) Short-term viability assay curves for KL-50 (4a) in PEO4 (BRCA2+) and PEO1 (BRCA2−/−) cells pre-treated with 0.01% DMSO control or 10 μM O^6BG (+O^6BG) for 1 h prior to KL-50 (4a) addition. (FIG. Z4I) Short-term viability assay curves for KL-50 (4a) in DLD1 BRCA2+/− and BRCA2−/− cells pre-treated with 0.01% DMSO control or 10 μM O^6BG (+O^6BG) for 1 h prior to KL-50 (4a) addition. For (FIG. Z4G), (FIG. Z4H), and (FIG. Z4I), points, mean; error bars, SD; n=3 technical replicates.
Short-term Cell Viability Assay. Cells were seeded in 96-well plates at 1000 or 2000 cells/well and allowed to adhere at 23° C. for 60 min and then incubated overnight at 37° C. […] Cells were imaged on a Cytation 3 imaging reader (BioTek) and quantified using CellProfiler software.

In assay [3] the test system is linearized pUC19 plasmid DNA. Nature of the assay: In vitro DNA cross-linking assay. Format: biochemical. To be noted: 100 μM, 6-36 hours. The method, then:
Plasmid Linearization Assay. To set up the linearization reactions, 20 units of EcoRI-HF (New England Biolabs) was mixed with 20 μg 2686 bp pUC19 vector DNA in CutSmart buffer (New England Biolabs), pH 7.9, in a total volume of 1000 μL for 30 min at 37° C. The CutSmart buffer contains 50 mM potassium acetate, 20 mM Tris acetate, 10 mM magnesium acetate, and 100 μg/mL BSA. The reacted DNA was then purified using PCR cleanup kit and quantified using the NanoDrop One (Thermo Fisher). The DNA was then stored at −20° C. before use in in vitro DNA cross-linking assays or melting temperature analysis.
In Vitro DNA Cross-linking Assays. Linearized pUC19 DNA, prepared as described above, was used for in vitro DNA cross-linking assays. For each condition, 200 ng of linearized pUC19 DNA (15.4 μM base pairs) was incubated with the indicated concentration of drug in 20 μL. Drug stock concentrations were made in DMSO such that each reaction contained a fixed 5% DMSO concentration. Reactions were conducted in 100 mM Tris buffer (pH 7.4). Cisplatin (Sigma) and DMSO vehicle were used as positive and negative controls, respectively. Reactions were conducted between 3-96 h at 37° C. The DNA was stored at −80° C. until electrophoretic analysis. For gel electrophoresis, DNA concentration was preadjusted to 10 ng/μL. […]

Turning to `CNC(=O)c1ncn2c(=O)n(CCF)nnc12` [Compound I-1, 3-(2-fluoroethyl)-N-methyl-4-oxo-3H,4H-imidazo[4,3-d][1,2,3,5]tetrazine-8-carboxamide], the “duration of survival (in words)” value in assay [1] is given as “longer duration of survival”.

For `NC(=O)c1ncn2c(=O)n(CCF)nnc12` [KL-50, 3-(2-fluoroethyl)-4-oxo-3H,4H-imidazo[4,3-d][1,2,3,5]tetrazine-8-carboxamide], the “sensitivity of FANCD2-deficient cells (in words)” value in assay [2] is reported as “hypersensitive”. Further, in assay [3], the “ICLs in plasmid DNA (in words)” value was “possessed ICLs, with delayed rates of formation relative to 12b”.
